Reference: patent US20250320213A1, “Nitrogen-Containing Heterocyclic Compounds” (Pfizer Inc., priority 2024, published 2025)

Molecular target: T1, STAT6 (Homo sapiens, UniProt P42226)
T1 construct: stably transfected HaCaT keratinocyte cell line, which expresses NanoLuc luciferase reporter gene under the transcriptional control of the STAT6 responsive promoter; endogenous in cells; host or cells: HaCaT keratinocyte reporter cell line (stably transfected with a NanoLuc reporter)
T1 sequence (P42226 1-847): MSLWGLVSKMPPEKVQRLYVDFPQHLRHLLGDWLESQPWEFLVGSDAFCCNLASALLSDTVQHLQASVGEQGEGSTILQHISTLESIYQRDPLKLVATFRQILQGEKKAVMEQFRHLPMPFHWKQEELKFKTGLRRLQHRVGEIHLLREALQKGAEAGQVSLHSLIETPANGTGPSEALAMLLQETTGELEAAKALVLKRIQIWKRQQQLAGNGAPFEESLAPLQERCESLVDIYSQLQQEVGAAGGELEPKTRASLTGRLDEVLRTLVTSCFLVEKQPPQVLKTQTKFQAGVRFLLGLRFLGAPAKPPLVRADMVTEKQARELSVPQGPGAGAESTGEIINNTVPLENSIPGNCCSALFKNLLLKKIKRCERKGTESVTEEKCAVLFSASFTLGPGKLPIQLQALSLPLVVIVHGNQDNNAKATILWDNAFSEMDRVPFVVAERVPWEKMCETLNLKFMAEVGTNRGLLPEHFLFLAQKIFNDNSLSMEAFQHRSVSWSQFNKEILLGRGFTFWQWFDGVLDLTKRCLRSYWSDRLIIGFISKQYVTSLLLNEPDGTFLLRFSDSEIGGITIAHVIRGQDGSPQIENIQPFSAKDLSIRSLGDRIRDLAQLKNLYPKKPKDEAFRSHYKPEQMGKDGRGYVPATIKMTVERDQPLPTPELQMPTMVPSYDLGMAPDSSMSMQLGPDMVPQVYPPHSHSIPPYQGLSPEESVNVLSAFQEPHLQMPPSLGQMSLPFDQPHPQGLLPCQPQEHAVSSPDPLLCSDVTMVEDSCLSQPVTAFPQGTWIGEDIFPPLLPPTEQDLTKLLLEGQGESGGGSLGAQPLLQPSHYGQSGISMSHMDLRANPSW
Test: STAT6 Reporter Luciferase Assay (IL-13 stimulated HaCaT keratinocyte NanoLuc reporter cells)
Format: cell-based
Conditions: IL-13 stimulated HaCaT STAT6 NanoLuc reporter cells; read-out: Reporter EC50
How it was run: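 IL-13 (0.12 nM, 4 h) stimulated STAT6 reporter activity in HaCaT cells after a 2 h compound pre-incubation; NanoLuc signal was measured.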

Cc1noc(=O)n1-c1ccc(N2Cc3c(C(=O)NCc4ccc(NC(=O)N5CCN(C)CC5)cc4)nn(C(C)C)c3[C@@H](C)C2)cc1 [Example 656, (S)-1-isopropyl-7-methyl-5-(4-(3-methyl-5-oxo-1,2,4-oxadiazol-4(5H)-yl)phenyl)-N-(4-(4-methylpiperazine-1-carboxamido)benzyl)-4,5,6,7-tetrahydro-1H-pyrazolo[4,3-c]pyridine-3-carboxamide]
EC50: 2 nM

CC(C)n1nc(C(=O)NCc2ccc(NC(=O)N3CCN(C)CC3)cc2)c2c1[C@@H](C)CN(c1ccc3c(c1)OCCN(C)C3=O)C2 [Example 657, (S)-1-isopropyl-7-methyl-5-(4-methyl-5-oxo-2,3,4,5-tetrahydrobenzo[f][1,4]oxazepin-8-yl)-N-(4-(4-methylpiperazine-1-carboxamido)benzyl)-4,5,6,7-tetrahydro-1H-pyrazolo[4,3-c]pyridine-3-carboxamide]
EC50: 2 nM

CC(C)n1nc(C(=O)NCc2ccc(NC(=O)N3CCN(C)CC3)cc2)c2c1[C@@H](C)CN(c1ccc(-c3nncn3C)cn1)C2 [Example 658, (S)-1-isopropyl-7-methyl-5-(5-(4-methyl-4H-1,2,4-triazol-3-yl)pyridin-2-yl)-N-(4-(4-methylpiperazine-1-carboxamido)benzyl)-4,5,6,7-tetrahydro-1H-pyrazolo[4,3-c]pyridine-3-carboxamide]
EC50: 4 nM

CC(C)n1nc(C(=O)NCc2ccc(NC(=O)N3CC(C)(N(C)C)C3)c(F)c2)c2c1[C@@H](C)CN(c1ccc(C(=O)N(C)C)cc1)C2 [Example 659, (S)-N-(4-(3-(dimethylamino)-3-methylazetidine-1-carboxamido)-3-fluorobenzyl)-5-(4-(dimethylcarbamoyl)phenyl)-1-isopropyl-7-methyl-4,5,6,7-tetrahydro-1H-pyrazolo[4,3-c]pyridine-3-carboxamide]
EC50: 8 nM

CC(C)n1nc(C(=O)NCc2ccc(NC(=O)N3CCC4(CCN(C)CC4)CC3)c(F)c2)c2c1[C@@H](C)CN(c1ccc(C(=O)N(C)C)cc1)C2 [Example 660, (S)-N-(4-((5-(4-(dimethylcarbamoyl)phenyl)-1-isopropyl-7-methyl-4,5,6,7-tetrahydro-1H-pyrazolo[4,3-c]pyridine-3-carboxamido)methyl)-2-fluorophenyl)-9-methyl-3,9-diazaspiro[5.5]undecane-3-carboxamide]
EC50: 4 nM

CC(C)n1nc(C(=O)NCc2ccc(NC(=O)N(C)C)cc2)c2c1[C@@H](C)CN(c1ccc(C(=O)N(C)C[C@H]3[C@@H]4CN(C)C[C@@H]43)cc1)C2 [Example 661, (S)-N-(4-(3,3-dimethylureido)benzyl)-1-isopropyl-7-methyl-5-(4-(methyl(((1R,5S,6r)-3-methyl-3-azabicyclo[3.1.0]hexan-6-yl)methyl)carbamoyl)phenyl)-4,5,6,7-tetrahydro-1H-pyrazolo[4,3-c]pyridine-3-carboxamide]
EC50: 5 nM

CC(C)n1nc(C(=O)NCc2ccc(NC(=O)N(C)C)cc2)c2c1[C@@H](C)CN(c1ccc(C(=O)N(C)CC3CCN(Cc4ccccc4)CC3)cc1)C2 [Example 662, (S)-5-(4-(((1-benzylpiperidin-4-yl)methyl)(methyl)carbamoyl)phenyl)-N-(4-(3,3-dimethylureido)benzyl)-1-isopropyl-7-methyl-4,5,6,7-tetrahydro-1H-pyrazolo[4,3-c]pyridine-3-carboxamide]
EC50: 3 nM

CC(C)n1nc(C(=O)NCc2ccc(NC(=O)N3CCN(CCC(=O)O)CC3)c(F)c2)c2c1[C@@H](C)CN(c1ccc(C(=O)N(C)C)cc1)C2 [Example 669, (S)-3-(4-((4-((5-(4-(dimethylcarbamoyl)phenyl)-1-isopropyl-7-methyl-4,5,6,7-tetrahydro-1H-pyrazolo[4,3-c]pyridine-3-carboxamido)methyl)-2-fluorophenyl)carbamoyl)piperazin-1-yl)propanoic acid]
EC50: 201 nM

CC(C)n1nc(C(=O)NCc2ccc(NC(=O)N3CCN(C)CC3)cc2)c2c1[C@@H](C)CN(c1ccc(-n3ccnn3)cc1)C2 [Example 674, (S)-5-(4-(1H-1,2,3-triazol-1-yl)phenyl)-1-isopropyl-7-methyl-N-(4-(4-methylpiperazine-1-carboxamido)benzyl)-4,5,6,7-tetrahydro-1H-pyrazolo[4,3-c]pyridine-3-carboxamide]
EC50: 0.2 nM

CC(C)n1nc(C(=O)NCc2ccc(NC(=O)N(C)C)cc2)c2c1[C@@H](C)CN(c1ccc(C(=O)N3CCN4CCC[C@@H]4C3)cc1)C2 [Example 675, (S)-N-(4-(3,3-dimethylureido)benzyl)-1-isopropyl-7-methyl-5-(4-((R)-octahydropyrrolo[1,2-a]pyrazine-2-carbonyl)phenyl)-4,5,6,7-tetrahydro-1H-pyrazolo[4,3-c]pyridine-3-carboxamide]
EC50: 34 nM

CC(C)n1nc(C(=O)NCc2ccc(NC(=O)N(C)C)cc2)c2c1[C@@H](C)CN(c1ccc(C(=O)N3Cc4cccnc4C3)cc1)C2 [Example 676, (S)-5-(4-(6,7-dihydro-5H-pyrrolo[3,4-b]pyridine-6-carbonyl)phenyl)-N-(4-(3,3-dimethylureido)benzyl)-1-isopropyl-7-methyl-4,5,6,7-tetrahydro-1H-pyrazolo[4,3-c]pyridine-3-carboxamide]
EC50: 0.3 nM

CC(C)n1nc(C(=O)NCc2ccc(NC(=O)N3CC[C@@H](N(C)C)C3)c(F)c2)c2c1[C@@H](C)CN(c1ccc(C(=O)N(C)C)cc1)C2 [Example 678, (S)-N-(4-((R)-3-(dimethylamino)pyrrolidine-1-carboxamido)-3-fluorobenzyl)-5-(4-(dimethylcarbamoyl)phenyl)-1-isopropyl-7-methyl-4,5,6,7-tetrahydro-1H-pyrazolo[4,3-c]pyridine-3-carboxamide]
EC50: 3 nM

CC(C)n1nc(C(=O)NCc2ccc(NC(=O)N3CCC(C)(N(C)C)C3)c(F)c2)c2c1[C@@H](C)CN(c1ccc(C(=O)N(C)C)cc1)C2 (stereo partly drawn) [Example 679, (7S)-N-(4-(3-(dimethylamino)-3-methylpyrrolidine-1-carboxamido)-3-fluorobenzyl)-5-(4-(dimethylcarbamoyl)phenyl)-1-isopropyl-7-methyl-4,5,6,7-tetrahydro-1H-pyrazolo[4,3-c]pyridine-3-carboxamide]
EC50: 3 nM

CC(C)n1nc(C(=O)NCc2ccc(NC(=O)N3CCN(C)[C@@H](C)C3)c(F)c2)c2c1[C@@H](C)CN(c1ccc(C(=O)N(C)C)cc1)C2 [Example 680, (S)-5-(4-(dimethylcarbamoyl)phenyl)-N-(4-((S)-3,4-dimethylpiperazine-1-carboxamido)-3-fluorobenzyl)-1-isopropyl-7-methyl-4,5,6,7-tetrahydro-1H-pyrazolo[4,3-c]pyridine-3-carboxamide]
EC50: 2 nM

CC(C)n1nc(C(=O)NCc2ccc(NC(=O)N3CC[C@@H](CN(C)C)C3)c(F)c2)c2c1[C@@H](C)CN(c1ccc(C(=O)N(C)C)cc1)C2 [Example 681, (S)-N-(4-((S)-3-((dimethylamino)methyl)pyrrolidine-1-carboxamido)-3-fluorobenzyl)-5-(4-(dimethylcarbamoyl)phenyl)-1-isopropyl-7-methyl-4,5,6,7-tetrahydro-1H-pyrazolo[4,3-c]pyridine-3-carboxamide]
EC50: 3 nM
